{"source": "PubChem BioAssay AID1189", "about": "(EPA DSSTox, 2008)", "note": "Calls of active or inactive are those of the source.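 Rule for the calls: active = a tumor-causing dose value with its tumor site reported for any sex and species group of a rodent or other animal cancer study; inconclusive = only studies judged inadequate by the national testing program; inactive = tested in at least one study, none positive.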", "data": [{"assay": "DSSTox (CPDBAS) Carcinogenic Potency Database Summary SingleCellCall Results", "settings": "animal chronic carcinogenicity bioassays, CPDB summary call", "how_it_was_run": "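Literature-derived summary: each substance receives an overall carcinogenic/non-carcinogenic category drawn from long-term bioassays in rats, mice, hamsters, dogs or primates, using the most positive sex-species experiment and minimal evidence criteria.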", "values": [{"smiles": "CCCNC(=O)NS(=O)(=O)c1ccc(Cl)cc1", "outcome": "inactive"}, {"smiles": "CN(N)C=O", "outcome": "active"}, {"smiles": "CN(N=O)C(=O)N[C@@H]1[C@@H](O)[C@H](O)[C@@H](CO)O[C@@H]1O", "outcome": "active"}, {"smiles": "CC(=O)OC[C@H]1O[C@H](O[C@]2(COC(C)=O)O[C@H](COC(=O)C(C)C)[C@@H](OC(=O)C(C)C)[C@@H]2OC(=O)C(C)C)[C@H](OC(=O)C(C)C)[C@@H](OC(=O)C(C)C)[C@@H]1OC(=O)C(C)C", "outcome": "inactive"}, {"smiles": "ClCC1CO1", "note": "(configuration not stated)", "outcome": "active"}, {"smiles": "Cc1cc(Cl)ccc1OCC(=O)O", "outcome": "inactive"}, {"smiles": "COc1ccc(OC)c(/C=C/c2ccc(N)cc2)c1", "outcome": "active"}, {"smiles": "N[C@@H](Cc1c[nH]c2ccccc12)C(=O)O", "outcome": "inactive"}, {"smiles": "CCC(C(=O)NC(N)=O)c1ccccc1", "note": "(configuration not stated)", "outcome": "inactive"}, {"smiles": "Nc1c(Cl)c(Cl)nc(C(=O)O)c1Cl", "outcome": "inactive"}, {"smiles": "O=c1[nH]c(=O)n(C2CCCO2)cc1F", "note": "(configuration not stated)", "outcome": "inactive"}, {"smiles": "CN(C)P(=O)(N(C)C)N(C)C", "outcome": "active"}, {"smiles": "CCCN(CCC)c1c([N+](=O)[O-])cc(C(F)(F)F)cc1[N+](=O)[O-]", "outcome": "active"}, {"smiles": "CC(C)(Oc1ccc(C2CCCc3ccccc32)cc1)C(=O)O", "note": "(configuration not stated)", "outcome": "active; inactive"}, {"smiles": "CCCCOCCO", "outcome": "active"}, {"smiles": "OCCN(CCO)c1nc(-c2cccs2)nc2ccccc12", "outcome": "inactive"}, {"smiles": "COc1ccc(CN(CCN(C)C)c2ccccn2)cc1", "outcome": "active; inactive"}, {"smiles": "FC(F)OC(Cl)C(F)(F)F", "note": "(configuration not stated)", "outcome": "inactive"}, {"smiles": "NC(=O)N/N=C/c1ccc([N+](=O)[O-])o1", "outcome": "active"}, {"smiles": "c1ccc2c(c1)Oc1ccccc1O2", "outcome": "inactive; active"}, {"smiles": "O=NN1CCC1", "outcome": "active"}, {"smiles": "Nc1cccc2ccccc12", "outcome": "active"}, {"smiles": "CCCCN(CCCC)C(=S)[S-].CCCCN(CCCC)C(=S)[S-].[Zn+2]", "outcome": "inactive"}, {"smiles": "CN(C)c1ccc(C(=N)c2ccc(N(C)C)cc2)cc1", "outcome": "active"}, {"smiles": "CC(=O)NNc1ccc(CO)cc1", "outcome": "active"}, {"smiles": "NC(N)=Nc1nc(CSCCNc2nsnc2N)cs1", "outcome": "active"}, {"smiles": "CC/C(C)=N/O", "outcome": "active; inactive"}, {"smiles": "C/C(=C(\\CCOC(=O)c1ccccc1)SC(=O)c1ccccc1)N(C=O)Cc1cnc(C)nc1N", "outcome": "inactive; active"}, {"smiles": "COC(=O)C1=C(C)NC(C)=C(C(=O)OCCN2CCN(C(c3ccccc3)c3ccccc3)CC2)C1c1cccc([N+](=O)[O-])c1", "note": "(configuration not stated)", "outcome": "inactive"}, {"smiles": "O=[N+]([O-])c1ccc2c3c(cccc13)CC2", "outcome": "active"}, {"smiles": "CC(Oc1cc(Cl)c(Cl)cc1Cl)C(=O)O", "note": "(configuration not stated)", "outcome": "inactive"}, {"smiles": "C[C@]12C=CC(=O)C=C1CC[C@@H]1[C@@H]2C(=O)C[C@@]2(C)[C@H]1CC[C@]2(O)C(=O)CO", "outcome": "inactive"}, {"smiles": "COc1ccc(N)cc1", "outcome": "inactive"}, {"smiles": "O=C(O)C(Cl)Cl", "outcome": "active; inactive"}, {"smiles": "O=C1CCN([C@@H]2O[C@H](CO)[C@@H](O)[C@H]2O)C(=O)N1", "outcome": "inactive"}, {"smiles": "ClC(Cl)=C(Cl)c1c(Cl)c(Cl)c(Cl)c(Cl)c1Cl", "outcome": "inactive"}, {"smiles": "S=C(NC1CCCCC1)NC1CCCCC1", "outcome": "inactive; active"}, {"smiles": "CC(=O)O[C@]1(C(C)=O)CC[C@H]2[C@@H]3C=C(Cl)C4=CC(=O)[C@@H]5C[C@@H]5[C@]4(C)[C@H]3CC[C@@]21C", "outcome": "active; inactive"}, {"smiles": "CCCCC1C(=O)N(c2ccccc2)N(c2ccccc2)C1=O", "outcome": "active; inactive"}, {"smiles": "CN[C@H]1CCc2cc(OC)c(OC)c(OC)c2-c2ccc(OC)c(=O)cc21", "outcome": "inactive"}, {"smiles": "O=S(=O)([O-])[O-].[Cd+2]", "outcome": "active; inactive"}, {"smiles": "CCCNN", "outcome": "active"}, {"smiles": "CC1CN(N=O)CC(C)O1", "note": "(configuration not stated)", "outcome": "active"}, {"smiles": "ClCCl", "outcome": "active"}, {"smiles": "CN(N=O)C(=O)c1ccccc1", "outcome": "active; inactive"}, {"smiles": "CCOc1ccc(NC(N)=O)cc1", "outcome": "active"}, {"smiles": "CCCCC/C=C\\C/C=C\\CCCCCCCC(=O)OC", "outcome": "inactive"}, {"smiles": "C1CCC(C(CC2CCCCN2)C2CCCCC2)CC1", "note": "(configuration not stated)", "outcome": "inactive"}, {"smiles": "Brc1cc(Br)c(-c2cc(Br)c(Br)cc2Br)cc1Br", "outcome": "active"}, {"smiles": "CCOC(=O)[C@]1(c2ccccc2)CCC=C[C@H]1N(C)C", "outcome": "inactive"}, {"smiles": "[O]=[Nb](=[O])[OH]", "outcome": "inactive"}, {"smiles": "[Cl-].[Cl-].[Sn+2]", "outcome": "inactive"}, {"smiles": "S=C1NCCN1", "outcome": "active; inactive"}, {"smiles": "ClC(Cl)C(Cl)(Cl)Cl", "outcome": "active"}, {"smiles": "CCOC(=O)C(C)(C)Oc1ccc(Cl)cc1", "outcome": "active"}, {"smiles": "[Cl-].[Hg+]", "outcome": "inactive; active"}, {"smiles": "Cc1cc(Cc2cc(C)cc(C(C)(C)C)c2O)c(O)c(C(C)(C)C)c1", "outcome": "inactive; active"}, {"smiles": "CCSCC[C@H](N)C(=O)O", "outcome": "active; inactive"}, {"smiles": "O=NN1CC=CCO1", "outcome": "active"}, {"smiles": "Cc1ccc(Cl)cc1N", "outcome": "active"}, {"smiles": "Cc1ccc(S(=O)(=O)Oc2ccc(N=Nc3ccc(-c4ccc(N=Nc5c(O)ccc6cc(S(=O)(=O)O)cc(S(=O)(=O)O)c56)c(C)c4)cc3C)cc2)cc1", "outcome": "active"}, {"smiles": "CC(C)CN(N=O)C(=N)N[N+](=O)[O-]", "outcome": "inactive"}, {"smiles": "CCBr", "outcome": "active"}, {"smiles": "O=NN1CCCCC1", "outcome": "active; inactive"}, {"smiles": "CC(=O)NNC(C)=O", "outcome": "inactive"}, {"smiles": "O=NN1CCOCC1", "outcome": "active; inactive"}, {"smiles": "CC[C@]1(O)CC2CN(CCc3c([nH]c4ccccc34)[C@@](C(=O)OC)(c3cc4c(cc3OC)N(C)[C@H]3[C@@](O)(C(=O)OC)[C@H](OC(C)=O)[C@]5(CC)C=CCN6CC[C@]43[C@@H]65)C2)C1", "note": "(some centres not stated)", "outcome": "inactive"}, {"smiles": "CN(N=O)c1cccnc1", "outcome": "inactive"}, {"smiles": "C=C/C1=C/[C@H](C)[C@](C)(OC(C)=O)C(=O)OCC2=CC[N+]3(C)CC[C@@H](OC1=O)C23[O-]", "note": "(some centres not stated)", "outcome": "active; inactive"}, {"smiles": "CC(O)CN(N=O)C(=O)NCCCl", "note": "(configuration not stated)", "outcome": "active"}, {"smiles": "Nc1c(Cl)cc([N+](=O)[O-])cc1Cl", "outcome": "inactive"}, {"smiles": "O=C1NCCN1/N=C/c1ccc([N+](=O)[O-])o1", "outcome": "active"}, {"smiles": "CCCN(N=O)C(=N)N[N+](=O)[O-]", "outcome": "active"}, {"smiles": "CCCN(CCC)c1ccc(N=Nc2cc[n+]([O-])cc2)cc1", "outcome": "inactive"}, {"smiles": "CC(O)CN(CC(C)O)N=O", "note": "(configuration not stated)", "outcome": "active"}, {"smiles": "ClCc1ccccc1", "outcome": "active"}, {"smiles": "[S-]c1nc2ccccc2s1.[S-]c1nc2ccccc2s1.[Zn+2]", "outcome": "inactive; active"}, {"smiles": "CC(=O)Oc1c(C)c(C)c2c(c1C)CCC(C)(CCCC(C)CCCC(C)CCCC(C)C)O2", "note": "(configuration not stated)", "outcome": "inactive"}, {"smiles": "Cc1cc(O)ccc1O", "outcome": "inactive; active"}, {"smiles": "CC#N", "outcome": "inactive"}, {"smiles": "C[C@]12C=CC(=O)C=C1CC[C@@H]1[C@@H]2[C@@H](O)C[C@@]2(C)[C@H]1CC[C@]2(O)C(=O)COC(=O)CCCc1ccc(N(CCCl)CCCl)cc1", "outcome": "active"}, {"smiles": "CCCCC(CC)COC(=O)COc1ccc(Cl)cc1Cl", "note": "(configuration not stated)", "outcome": "inactive"}, {"smiles": "Oc1ccccc1-c1ccccc1", "outcome": "active"}, {"smiles": "O=Nc1ccc(Nc2ccccc2)cc1", "outcome": "active; inactive"}, {"smiles": "Oc1cccc(O)c1", "outcome": "inactive"}, {"smiles": "c1ccc2ccccc2c1", "outcome": "active"}, {"smiles": "c1ccc2c(c1)ccc1cc3c(ccc4ccccc43)cc12", "outcome": "active"}, {"smiles": "Oc1ccc2c(c1)OCO2", "outcome": "active; inactive"}, {"smiles": "CC[N+](=O)[O-]", "outcome": "inactive"}, {"smiles": "ClC/C=C/CCl", "outcome": "active; inactive"}, {"smiles": "C[C@H](CCC(=O)O)[C@H]1CC[C@H]2[C@@H]3[C@H](O)C[C@@H]4C[C@H](O)CC[C@]4(C)[C@H]3CC[C@]12C", "outcome": "inactive"}, {"smiles": "CC(Cl)C=O", "note": "(configuration not stated)", "outcome": "active"}, {"smiles": "Cc1ccc(C)c(C)c1", "outcome": "active"}, {"smiles": "ClC(Cl)(Cl)Cl", "outcome": "active; inactive"}, {"smiles": "[Cl-].[Cl-].[Hg+2]", "outcome": "active"}, {"smiles": "COc1ccc(N)c(C)c1", "outcome": "active"}, {"smiles": "O=P(O)(O)O", "outcome": "inactive; active"}, {"smiles": "CCOP(=S)(OCC)Oc1ccc([N+](=O)[O-])cc1", "outcome": "inactive; active"}, {"smiles": "F", "outcome": "inactive"}, {"smiles": "Cc1cc(=O)[nH]c(=S)[nH]1", "outcome": "active"}, {"smiles": "OC[C@@H](O)[C@@H](O)[C@H](O)[C@H](O)CO[C@H]1O[C@H](CO)[C@@H](O)[C@H](O)[C@H]1O", "outcome": "inactive"}, {"smiles": "CN(C)c1ccc(N=Nc2ccccc2)cc1", "outcome": "active"}, {"smiles": "Oc1ccc2ccccc2c1N=Nc1ccccc1", "outcome": "active"}, {"smiles": "Nc1ccc([N+](=O)[O-])cc1", "outcome": "inactive; active"}, {"smiles": "Clc1ccccc1", "outcome": "active; inactive"}, {"smiles": "CC(C)(C)NC(=O)[C@H]1CC[C@H]2[C@@H]3CC[C@H]4NC(=O)C=C[C@]4(C)[C@H]3CC[C@]12C", "outcome": "active; inactive"}, {"smiles": "C1COCCO1", "outcome": "active; inactive"}, {"smiles": "NC(=S)C(N)=S", "outcome": "inactive"}, {"smiles": "CN1C(C(=O)Nc2ccccn2)=C(O)c2ccccc2S1(=O)=O", "outcome": "inactive"}, {"smiles": "COc1cc(N)ccc1N=Nc1ccccc1", "outcome": "inactive; active"}, {"smiles": "C=C(C)[C@H]1CC=C(C)CC1", "outcome": "active"}, {"smiles": "CCC[CH2][Sn]([CH2]CCC)([CH2]CCC)[O][Sn]([CH2]CCC)([CH2]CCC)[CH2]CCC", "outcome": "inactive"}, {"smiles": "O=[N+]([O-])OCC(CO[N+](=O)[O-])O[N+](=O)[O-]", "outcome": "active"}, {"smiles": "C=CCc1ccc(OC)c(OC)c1", "outcome": "active; inactive"}, {"smiles": "CC(=O)[O][Hg][c]1ccccc1", "outcome": "inactive"}, {"smiles": "C/C=C1/C[C@@H](C)[C@](O)(CO)C(=O)OCC2=CCN3CC[C@@H](OC1=O)[C@@H]23", "outcome": "active"}, {"smiles": "Cc1cc(C(C)(C)C)c(O)c(C(C)(C)C)c1", "outcome": "active"}, {"smiles": "Nc1nc(N)c2nc(-c3ccccc3)c(N)nc2n1", "outcome": "active; inactive"}, {"smiles": "OO", "outcome": "active; inactive"}, {"smiles": "NNc1nc(-c2ccccc2)cs1", "outcome": "inactive"}, {"smiles": "Cc1cc(Cc2ccc(N)c(C)c2)ccc1N", "outcome": "active"}, {"smiles": "O=S(=O)(O)c1ccc2c(N=Nc3ccc(S(=O)(=O)O)c4ccccc34)c(O)c(S(=O)(=O)O)cc2c1", "outcome": "active"}, {"smiles": "NC(=O)CCCCC(N)=O", "outcome": "inactive; active"}, {"smiles": "Cc1cc(C)nc(NS(=O)(=O)c2ccc(N)cc2)n1", "outcome": "active"}, {"smiles": "CC(Cl)CCl", "note": "(configuration not stated)", "outcome": "active; inactive"}, {"smiles": "O=C1C(Cl)=C(Cl)C(=O)c2ccccc21", "outcome": "inactive"}, {"smiles": "CCCCC(CC)CO", "note": "(configuration not stated)", "outcome": "active; inactive"}]}]}
